# Results as given in patent publication US4129721A, “A-40104 antibiotics and process for production thereof” (priority 1977, dated 1978).
# Columns and labels:
# [1] = test system: Staphylococcus aureus 3055; assay: standard disc-plate assay; assay type: cell-based; settings: Penicillin-G susceptible, disc diameter 6.35 mm, read-out: Zone Diameters
# Protocol: (§1) In one important aspect of this activity, the A-40104 antibiotics inhibit the growth of organisms which are resistant to other antibiotics. In Table IV the standard disc-plate-assay activity of A-40104 factors A and B against representative organisms is summarized. Activity is measured as the diameter (in mm) of the observed zone of inhibition; the diameter of disc used in each case was 6.35 mm.
# [2] = test system: Staphylococcus aureus 3074; assay: standard disc-plate assay; assay type: cell-based; settings: Penicillin-G resistant, disc diameter 6.35 mm, read-out: Zone Diameters
# Protocol: as §1
# Streptococcus pyogenes = assay: gradient-plate agar-dilution method; assay type: cell-based
# [3] = test system: Neisseria gonorrhea Lind.; assay: gradient-plate agar-dilution method; assay type: cell-based
# [4] = test system: Hemophilus influenzae 259; assay: gradient-plate agar-dilution method; assay type: cell-based; settings: Haemophilus influenzae
# [5] = test system: Hemophilus influenzae 260; assay: gradient-plate agar-dilution method; assay type: cell-based; settings: Haemophilus influenzae
# Actinomyces israelii = assay: standard agar-dilution test, anaerobic bacteria; assay type: cell-based; settings: read after 2 hours incubation
# From the text: (§2) Table VIII summarizes the activity of A-40104 factor A, as determined by the standard agar-dilution test.
# (§3) *MIC determined by the agar-dilution method. Endpoints were read after 2
# [6] = test system: Bacteroides melaninogenicus 1856/28; assay: standard agar-dilution test, anaerobic bacteria; assay type: cell-based; settings: Prevotella intermedia, read after 2 hours incubation
# From the text: as §2, §3
# [7] = test system: Bacteroides thetaiotaomicron; assay: standard agar-dilution test, anaerobic bacteria; assay type: cell-based; settings: 2 h
# From the text: as §2, §3
# Clostridium septicum = assay: standard agar-dilution test, anaerobic bacteria; assay type: cell-based; settings: 2 h
# From the text: as §2, §3
# Eubacterium aerofacines = assay: standard agar-dilution test, anaerobic bacteria; assay type: cell-based; settings: 2 h
# From the text: as §2, §3
# [8] = test system: Peptostreptococcus anaerobius; assay: standard agar-dilution test, anaerobic bacteria; assay type: cell-based; settings: 2 h
# From the text: as §2, §3
# Clostridium perfringens = assay: microbe, parasite or virus in culture; assay type: cell-based
# [9] = test system: Peptostreptococcus intermedius; assay: standard agar-dilution test, anaerobic bacteria; assay type: cell-based; settings: 2 h
# Bacteroides fragilis 111 = assay: standard agar-dilution test, anaerobic bacteria; assay type: cell-based; settings: Bacteroides fragilis, 111, 2 h
# Bacteroides vulgatis = assay: standard agar-dilution test, anaerobic bacteria; assay type: cell-based; settings: 2 h
# Fusobacterium symbiosum = assay: standard agar-dilution test, anaerobic bacteria; assay type: cell-based; settings: 2 h
# [10] = acute toxicity, intraperitoneal injection in mice; settings: mouse, in vivo, ip
# From the text: A special advantage of the A-40104 antibiotics is that they are relatively nontoxic.
# powdery mildew = powdery mildew control on bean and barley plants; assay type: in vivo
# From the text: The A-40104 antibiotics are also active against plant pathogens. […] The systemic activity of these antibiotics is especially advantageous in the control of plant pathogens or Spiroplasmas.
# electrometric titration = assay type: physicochemical; settings: 66 percent aqueous dimethylformamide
smiles,measurement,setting,value
"C=CC1(C)CC(OC(=O)CO[C@@H]2OC[C@@H](O)[C@H](O)[C@H]2O)C2(C)C(C)CCC3(CCC(=O)C32)C(C)C1O (stereo partly drawn) [A-40104 factor A, β,D-xylopyranosyl acetal derivative of pleuromutilin]",zone of inhibition at 10 µg/disc,[1]; 10 mcg/disc,27.2 mm
same,zone of inhibition at 100 µg/disc,[1]; 100 mcg/disc,31.2 mm
same,zone of inhibition at 10 µg/disc,[2]; 10 mcg/disc,25.4 mm
same,zone of inhibition at 100 µg/disc,[2]; 100 mcg/disc,29.2 mm
same,MIC,Streptococcus pyogenes,< 0.01 µg/mL
same,MIC,[3],0.5 µg/mL
same,MIC,[4],0.7 µg/mL
same,MIC,[5],0.7 µg/mL
same,MIC,Actinomyces israelii,≤ 0.5 µg/mL
same,MIC,[6],4 µg/mL
same,MIC,[7],2 µg/mL
same,MIC,Clostridium septicum,8 µg/mL
same,MIC,Eubacterium aerofacines,16 µg/mL
same,MIC,[8],2 µg/mL
same,MIC,Clostridium perfringens,8 µg/mL
same,MIC,[9],≤ 0.5 µg/mL
same,MIC,Bacteroides fragilis 111,8 µg/mL
same,MIC,Bacteroides vulgatis,4 µg/mL
same,MIC,Fusobacterium symbiosum,4 µg/mL
same,LD50,[10],> 300 mg/kg
same,control of powdery mildew,"powdery mildew; bean and barley plants, soil drench, 100 ppm",control of powdery mildew is obtained
same,activity against powdery mildew,powdery mildew; foliar spray or soil drench,active against powdery mildew
same,titratable groups,electrometric titration,no titratable groups are present
